Source: patent EP0007716A1, “R-N-(2-phenyl-2-hydroxyethyl)-3-phenylpropyl amines, their formulations, use and preparation” (ELI LILLY AND COMPANY, priority 1978, dated 1980)

Tested on: dogs with induced myocardial infarction
Assay: Inotropic potency on intravenous administration to dogs with induced myocardial infarction
Assay type: in vivo
Conditions: for ED50: Canis lupus familiaris, dose required to effect a fifty percent increase in contractility, four dogs with induced myocardial infarction, read-out: Contractile potency (mcg./kg.)ED50; for Blood pressure change (mm/Hg)ED50: change in blood pressure attributable to the drug at the ED50 dose; for Blood pressure change (mm/Hg)ED50 / Heart rate increase (beats/min.)ED50: dogs with induced myocardial infarction; for Heart rate increase (beats/min.)ED50: increase in heart rate observed at the ED50 dose
Procedure: The compounds provided by this invention have been evaluated for their inotropic potency in anesthetized dogs and in conscious dogs with implanted cardiovascular transducers. The heart rate, cardiac output, systolic pressure and the derivative of the left ventricular pressure, which is the index of cardiac contractility, were measured.
Column 1 lists the compounds evaluated according to the test. Each of the compounds evaluated was administered intravenously to four dogs with induced myocardial infarction. Column 2 records the contractile potency of each compound as the dose in mcg./kg. of body weight required to effect a fifty percent increase in contractility (ED50). Column 3 presents the increase in heart rate observed at the EDSO dose. Column 4 records the change in blood pressure attributable to the administered drug.

| Structure (SMILES) | ED50 [µg/kg] | Blood pressure change (mm/Hg)ED50 | Heart rate increase (beats/min.)ED50 [beats/min.] |
| --- | --- | --- | --- |
| Oc1cccc(CCCNC[C@H](O)c2cccc(O)c2)c1 [R-N-[2-(3-Hydroxyphenyl)-2-hydroxyethyl]-3-(3-hydroxyphenyl)propylamine] | 1 | +7 mm/Hg | 14 |
| Oc1ccc(CCCNC[C@H](O)c2cccc(O)c2)cc1 [R-N-[2-(3-hydroxyphenyl)-2-hydroxyethyl]-3-(4-hydroxyphenyl)propylamine] | 5 | +1 mm/Hg | 12 |
| Oc1ccc([C@@H](O)CNCCCc2cccc(O)c2)cc1 [R-N-[2-(4-hydroxyphenyl)-2-hydroxyethyl]-3-(3-hydroxyphenyl)propylamine] | 1 | -4 mm/Hg | 16 |
| Oc1ccc(CCCNC[C@H](O)c2ccc(O)cc2)cc1 [R-N-[2-(4-hydroxyphenyl)-2-hydroxyethyl]-3-(4-hydroxy-phenyl)propylamine] | 4 | +4 mm/Hg | 10 |
